One assay concerns DLD-1. As to the kind of experiment: MTS assay, DLD-1. Conditions: Homo sapiens, 72 hours, 1 Percent FBS. It counts as cell-based. Background: Tetrazolium dyes change colour on reduction, which living cells bring about.
Another assay relates to MDA-MB-231. Briefly: MTS assay, MDA-MB-231. Type of assay: cell-based. The conditions noted are these: Homo sapiens, 72 hours, 1 Percent FBS.

Regarding `COc1ccc2cc(-c3ccnc(NCCc4cccc(OC)c4OC)n3)cc(NC(=O)OC(C)(C)C)c2c1` [Compound 94, tert-butyl [3-(2-{[2-(2,3-dimethoxyphenyl)ethyl]amino}pyrimidin-4-yl)-7-methoxy-1-naphthyl]carbamate], the inhibition (usually the share of the control response that was lost under treatment) at 10 µM came to 37% in the assay on DLD-1 and 35% in the assay with MDA-MB-231.
For the compound `COc1ccc2cc(-c3ccnc(NCCc4cccnc4)n3)cc(NC(=O)OC(C)(C)C)c2c1` [Compound 98, tert-butyl (7-methoxy-3-{2-[(2-pyridin-3-ylethyl)amino]pyrimidin-4-yl}-1-naphthyl)carbamate], the inhibition at 10 µM in the assay on DLD-1 turned out to be 98%; with MDA-MB-231 it was 86%.
The corresponding values for `COc1cccc(CNc2nccc(-c3cc(NC(=O)OC(C)(C)C)c4cc(OC)ccc4c3)n2)c1` [Compound 99, tert-butyl (7-methoxy-3-{2-[(3-methoxybenzyl)amino]pyrimidin-4-yl}-1-naphthyl)carbamate] are 97% and 98%.
For `COCCNc1nccc(-c2cc(NC(=O)OC(C)(C)C)c3cc(OC)ccc3c2)n1` [Compound 100, tert-butyl (7-methoxy-3-{2-[(2-methoxyethyl)amino]pyrimidin-4-yl}-1-naphthyl)carbamate], the inhibition at 10 µM with DLD-1 was found to be 70%; in the assay on MDA-MB-231, 31%.
Taken in the same sequence, the figures for `COc1ccc2cc(-c3ccnc(NC4CCN(Cc5ccccc5)CC4)n3)cc(NC(=O)OC(C)(C)C)c2c1` [Compound 101, tert-butyl (3-{2-[(1-benzylpiperidin-4-yl)amino]pyrimidin-4-yl}-7-methoxy-1-naphthyl)carbamate] were 96% and 98%.
Taken in the same sequence, the figures for `COc1ccc2cc(-c3ccnc(NC4CC(C)(C)N(C)C(C)(C)C4)n3)cc(NC(=O)OC(C)(C)C)c2c1` [Compound 103, tert-butyl (7-methoxy-3-{2-[(1,2,2,6,6-pentamethylpiperidin-4-yl)amino]pyrimidin-4-yl}-1-naphthyl)carbamate] were 74% and 89%.
Taken in the same sequence, the figures for `COc1ccc(CNc2nccc(-c3cc(NC(=O)OC(C)(C)C)c4cc(OC)ccc4c3)n2)cc1` [Compound 104, tert-butyl (7-methoxy-3-{2-[(4-methoxybenzyl)amino]pyrimidin-4-yl}-1-naphthyl)carbamate] were 48% and 30%.
In the case of `COc1ccc2cc(-c3ccnc(NCC(C)(C)CN(C)C)n3)cc(NC(=O)OC(C)(C)C)c2c1` [Compound 105, tert-butyl [3-(2-{[3-(dimethylamino)-2,2-dimethylpropyl]amino}pyrimidin-4-yl)-7-methoxy-1-naphthyl]carbamate], the inhibition at 10 µM is 84% in the assay on DLD-1 and 89% in the assay with MDA-MB-231.
Taken in the same sequence, the figures for `COc1ccc2cc(-c3ccnc(NC4CCN(C)CC4)n3)cc(N3CCNCC3)c2c1` [Compound 116, 4-(6-methoxy-4-piperazin-1-yl-2-naphthyl)-N-(1-methylpiperidin-4-yl)pyrimidin-2-amine] were 97% and 97%.
In the case of `COc1ccc2cc(-c3ccnc(NC4CCN(Cc5ccccc5)CC4)n3)cc(N3CCNCC3)c2c1` [Compound 117, N-(1-benzylpiperidin-4-yl)-4-(6-methoxy-4-piperazin-1-yl-2-naphthyl)pyrimidin-2-amine], the inhibition at 10 µM in the assay on DLD-1 and with MDA-MB-231 was 97% in each case.
As for `COc1ccc2cc(-c3ccnc(NC4CC(C)(C)N(C)C(C)(C)C4)n3)cc(N3CCNCC3)c2c1` [Compound 118, 4-(6-methoxy-4-piperazin-1-yl-2-naphthyl)-N-(l,2,2,6,6-pentamethylpiperidin-4-yl)pyrimidin-2-amine], the inhibition at 10 µM with DLD-1 and in the assay on MDA-MB-231 was 96% in each case.
Take `COCCNc1nccc(-c2cc(N3CCNCC3)c3cc(OC)ccc3c2)n1` [Compound 119, N-(2-methoxyethyl)-4-(6-methoxy-4-piperazin-1-yl-2-naphthyl)pyrimidin-2-amine]: the results for the inhibition at 10 µM in the assay with DLD-1 and with MDA-MB-231 were 94% and 93%, respectively.
The corresponding values for `COc1ccc2cc(-c3ccnc(NCc4ccccn4)n3)cc(N3CCNCC3)c2c1` [Compound 120, 4-(6-methoxy-4-piperazin-1-yl-2-naphthyl)-N-(pyridin-2-ylmethyl)pyrimidin-2-amine] are 83% and 78%.
Take `COc1ccc2cc(-c3ccnc(NCc4ccc(OC)c(OC)c4)n3)cc(N3CCNCC3)c2c1` [Compound 121, N-(3,4-dimethoxybenzyl)-4-(6-methoxy-4-piperazin-1-yl-2-naphthyl)pyrimidin-2-amine]: the inhibition at 10 µM with DLD-1 was determined as 97%; in the assay on MDA-MB-231 it was 99%.
The corresponding values for `COc1ccc2cc(-c3ccnc(NCCc4cccnc4)n3)cc(N3CCNCC3)c2c1` [Compound 122, 4-(6-methoxy-4-piperazin-1-yl-2-naphthyl)-N-(2-pyridin-3-ylethyl)pyrimidin-2-amine] are 94% and 95%.
Taken in the same sequence, the figures for `COc1ccc2cc(-c3ccnc(NCCc4ccccn4)n3)cc(N3CCNCC3)c2c1` [Compound 123, 4-(6-methoxy-4-piperazin-1-yl-2-naphthyl)-N-(2-pyridin-2-ylethyl)pyrimidin-2-amine] were 97% and 98%.
The corresponding values for `COc1ccc2cc(-c3ccnc(NCCc4ccccc4OC)n3)cc(N3CCNCC3)c2c1` [Compound 124, N-[2-(2-methoxyphenyl)ethyl]-4-(6-methoxy-4-piperazin-1-yl-2-naphthyl)pyrimidin-2-amine] are 97% and 98%.
Consider `COc1ccc2cc(-c3ccnc(NCCN(C)C)n3)cc(N3CCNCC3)c2c1` [Compound 125, N′-[4-(6-methoxy-4-piperazin-1-yl-2-naphthyl)pyrimidin-2-yl]-N,N-dimethylethane-1,2-diamine], for which the inhibition at 10 µM with DLD-1 and in the assay on MDA-MB-231 was 96% each time.
Consider `COc1ccc2cc(-c3ccnc(NCc4cccc(C(F)(F)F)c4)n3)cc(N3CCNCC3)c2c1` [Compound 127, 4-(6-methoxy-4-piperazin-1-yl-2-naphthyl)-N-[3-(trifluoromethyl)benzyl] pyrimidin-2-amine], for which the inhibition at 10 µM amounted to 97% in the assay with DLD-1 and 99% in the assay on MDA-MB-231.
Taken in the same sequence, the figures for `COc1ccc2cc(-c3ccnc(NCc4ccccc4C)n3)cc(N3CCNCC3)c2c1` [Compound 128, 4-(6-methoxy-4-piperazin-1-yl-2-naphthyl)-N-(2-methylbenzyl)pyrimidin-2-amine] were 97% and 98%.
Taken in the same sequence, the figures for `COc1ccc2cc(-c3ccnc(NCCc4cccc(OC)c4OC)n3)cc(N3CCNCC3)c2c1` [Compound 129, N-[2-(2,3-dimethoxyphenyl)ethyl]-4-(6-methoxy-4-piperazin-1-yl-2-naphthyl)pyrimidin-2-amine] were 97% and 99%.
Taken in the same sequence, the figures for `COc1ccc2cc(-c3ccnc(NCc4cccnc4)n3)cc(N3CCNCC3)c2c1` [Compound 130, 4-(6-methoxy-4-piperazin-1-yl-2-naphthyl)-N-(pyridin-3-ylmethyl)pyrimidin-2-amine] were 97% and 76%.
Take `CCN1CCCC(Nc2nccc(-c3cc(N4CCNCC4)c4cc(OC)ccc4c3)n2)C1` (stereo not drawn) [Compound 131, N-(1-ethylpiperidin-3-yl)-4-(6-methoxy-4-piperazin-1-yl-2-naphthyl)pyrimidin-2-amine]: the inhibition at 10 µM came to 92% in the assay with DLD-1 and 97% in the assay on MDA-MB-231.
Taken in the same sequence, the figures for `COc1cc(CCNc2nccc(-c3cc(N4CCNCC4)c4cc(OC)ccc4c3)n2)cc(OC)c1` [Compound 132, N-[2-(3,5-dimethoxyphenyl)ethyl]-4-(6-methoxy-4-piperazin-1-yl-2-naphthyl)pyrimidin-2-amine] were 97% and 98%.
The corresponding values for `COc1ccc2cc(-c3ccnc(NCCN4CCCC4)n3)cc(N3CCNCC3)c2c1` [Compound 133, 4-(6-methoxy-4-piperazin-1-yl-2-naphthyl)-N-(2-pyrrolidin-1-ylethyl)pyrimidin-2-amine] are 97% and 98%.
Taken in the same sequence, the figures for `COc1ccc(CCNc2nccc(-c3cc(N4CCNCC4)c4cc(OC)ccc4c3)n2)cc1` [Compound 134, N-[2-(4-methoxyphenyl)ethyl]-4-(6-methoxy-4-piperazin-1-yl-2-naphthyl)pyrimidin-2-amine] were 97% and 98%.
For the compound `COc1ccc2cc(-c3ccnc(NCC(C)(C)CN(C)C)n3)cc(N3CCNCC3)c2c1` [Compound 136, N′-[4-(6-methoxy-4-piperazin-1-yl-2-naphthyl)pyrimidin-2-yl]-N,N,2,2-tetramethylpropane-1,3-diamine], the figures for the inhibition at 10 µM with DLD-1 and in the assay with MDA-MB-231 were 97% and 95%, respectively.
Taken in the same sequence, the figures for `CNc1nccc(-c2cc(NC3CCN(c4ccc5ccccc5n4)CC3)c3cc(OC)ccc3c2)n1` [Compound 154, 4-{6-methoxy-4-[(1-quinolin-2-ylpiperidin-4-yl)amino]-2-naphthyl}-N-methylpyrimidin-2-amine] were 82% and 41%.
Taken in the same sequence, the figures for `CNc1nccc(-c2cc(NC3CCN(c4ncnc5nc[nH]c45)CC3)c3cc(OC)ccc3c2)n1` [Compound 157, 4-(6-methoxy-4-{[1-(9H-purin-6-yl)piperidin-4-yl]amino}-2-naphthyl)-N-methylpyrimidin-2-amine] were 46% and 75%.
The corresponding values for `CNc1nccc(-c2cc(NC3CCN(c4cc(C(=N)N)cc(Cl)n4)CC3)c3cc(OC)ccc3c2)n1` [Compound 158, 2-chloro-6-[4-({7-methoxy-3-[2-(methylamino)pyrimidin-4-yl]-1-naphthyl}amino)piperidin-1-yl]pyridine-4-carboximidamide] are 98% and 98%.

Values taken from patent publication US8173808B2, “Substituted naphthalenyl-pyrimidine compounds” (ArQule, Inc., priority 2009, dated 2012).
